pIC50: −log10 of the molar value.
Tested on: 439559-082-T-J2-PDC complex spheroid growth
Assay: Anticancer human tumor 439559-082-T-J2-PDC patient-derived colon adenocarcinoma cell line growth inhibition [Asc]
Settings: for pIC50: curve of first compound; for viability, T/C: stronger effect = lower value
Procedure, shortened: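 Concentration series start at each agent's clinical Cmax, or at 10 microM when none is established, and drop in half-log steps; agents are applied alone or together to complex spheroids built with HUVEC and hMSC.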
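Further: spheroids exposed to agents for 7 days starting day 3 after seeding.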
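Wherever viability, T/C is given: percent of DMSO vehicle control viability with 100% = vehicle.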

Question: With O=C(c1ccc(F)c(F)c1Nc1ccc(I)cc1F)N1CC(O)([C@@H]2CCCCN2)C1 + CNC(C)C(=O)NC1CN(S(=O)(=O)c2cccc(S(=O)(=O)N3CCC4CCC(C(=O)NC(c5ccccc5)c5ccccc5)N4C(=O)C(NC(=O)C(C)NC)C3)c2)CCC2CCC(C(=O)NC(c3ccccc3)c3ccccc3)N2C1=O as the molecule, how does the pIC50 (second compound 0.00316 µM) read?
Answer: 6.58

Question: What about the pIC50 (second compound 0.01 µM) of the same molecule?
Answer: 6.61

Question: And the pIC50 (second compound 0.0316 µM)?
Answer: 6.60

Question: What about the pIC50 (second compound 0.1 µM) of the same molecule?
Answer: 6.64

Question: What about the pIC50 (second compound 0.316 µM) of the same molecule?
Answer: 6.85

Question: What about the pIC50 (second compound 1 µM) of the same molecule?
Answer: 6.91

Question: And the viability, T/C (second compound 0.00316 µM, first compound 0.00316 µM)?
Answer: 96.6%

Question: And the viability, T/C (second compound 0.00316 µM, first compound 0.01 µM)?
Answer: 77.4%

Question: What about the viability, T/C (second compound 0.00316 µM, first compound 0.0316 µM) of the same molecule?
Answer: 76.8%

Question: What about the viability, T/C (second compound 0.00316 µM, first compound 0.1 µM) of the same molecule?
Answer: 67.9%

Question: What about the viability, T/C (second compound 0.00316 µM, first compound 0.316 µM) of the same molecule?
Answer: 48.6%

Question: What about the viability, T/C (second compound 0.00316 µM, first compound 1 µM) of the same molecule?
Answer: 16.2%

Question: What about the viability, T/C (second compound 0.01 µM, first compound 0.00316 µM) of the same molecule?
Answer: 99.5%

Question: What about the viability, T/C (second compound 0.01 µM, first compound 0.01 µM) of the same molecule?
Answer: 107%

Question: What about the viability, T/C (second compound 0.01 µM, first compound 0.0316 µM) of the same molecule?
Answer: 87.7%

Question: And the viability, T/C (second compound 0.01 µM, first compound 0.1 µM)?
Answer: 61.9%

Question: What about the viability, T/C (second compound 0.01 µM, first compound 0.316 µM) of the same molecule?
Answer: 51%

Question: What about the viability, T/C (second compound 0.01 µM, first compound 1 µM) of the same molecule?
Answer: 25.6%

Question: What about the viability, T/C (second compound 0.0316 µM, first compound 0.00316 µM) of the same molecule?
Answer: 108%

Question: What about the viability, T/C (second compound 0.0316 µM, first compound 0.01 µM) of the same molecule?
Answer: 95.6%

Question: What about the viability, T/C (second compound 0.0316 µM, first compound 0.0316 µM) of the same molecule?
Answer: 89.5%

Question: And the viability, T/C (second compound 0.0316 µM, first compound 0.1 µM)?
Answer: 63.5%

Question: And the viability, T/C (second compound 0.0316 µM, first compound 0.316 µM)?
Answer: 47.6%

Question: What about the viability, T/C (second compound 0.0316 µM, first compound 1 µM) of the same molecule?
Answer: 27.1%

Question: What about the viability, T/C (second compound 0.1 µM, first compound 0.00316 µM) of the same molecule?
Answer: 86.8%

Question: And the viability, T/C (second compound 0.1 µM, first compound 0.01 µM)?
Answer: 98.3%

Question: What about the viability, T/C (second compound 0.1 µM, first compound 0.0316 µM) of the same molecule?
Answer: 86.7%

Question: What about the viability, T/C (second compound 0.1 µM, first compound 0.1 µM) of the same molecule?
Answer: 61.6%

Question: And the viability, T/C (second compound 0.1 µM, first compound 0.316 µM)?
Answer: 46.7%

Question: What about the viability, T/C (second compound 0.1 µM, first compound 1 µM) of the same molecule?
Answer: 17%

Question: What about the viability, T/C (second compound 0.316 µM, first compound 0.00316 µM) of the same molecule?
Answer: 89.8%

Question: And the viability, T/C (second compound 0.316 µM, first compound 0.01 µM)?
Answer: 101%

Question: What about the viability, T/C (second compound 0.316 µM, first compound 0.0316 µM) of the same molecule?
Answer: 69.8%

Question: And the viability, T/C (second compound 0.316 µM, first compound 0.1 µM)?
Answer: 51.4%

Question: And the viability, T/C (second compound 0.316 µM, first compound 0.316 µM)?
Answer: 46.8%

Question: What about the viability, T/C (second compound 0.316 µM, first compound 1 µM) of the same molecule?
Answer: 25%

Question: What about the viability, T/C (second compound 1 µM, first compound 0.00316 µM) of the same molecule?
Answer: 72.2%

Question: What about the viability, T/C (second compound 1 µM, first compound 0.01 µM) of the same molecule?
Answer: 68%

Question: What about the viability, T/C (second compound 1 µM, first compound 0.0316 µM) of the same molecule?
Answer: 68.2%

Question: What about the viability, T/C (second compound 1 µM, first compound 0.1 µM) of the same molecule?
Answer: 48.4%

Question: And the viability, T/C (second compound 1 µM, first compound 0.316 µM)?
Answer: 39%

Question: What about the viability, T/C (second compound 1 µM, first compound 1 µM) of the same molecule?
Answer: 15.5%
